In brackets after ≈: the same amount, converted by molar mass.
How the values were obtained:
Assay in all cases: in vitro antibacterial evaluation, MIC by broth dilution
Assay type in all cases: cell-based
Enterococcus sp. = conditions: broth dilution, 18 hours at 35° C.
In short: (§1)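 Broth dilution per NCCLS standard M7-A2 in Muller-Hinton II […], with an inoculum of 5×10^5 CFU/mL and antibiotic spanning 64-0.06 μg/mL. The MIC is the lowest concentration that inhibits growth of the organism.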

Staphylococcus sp. = conditions: broth dilution, 18 hours at 35° C.
In short: as §1

Streptococcus sp. = conditions: broth dilution, 18 hours at 35° C.
In short: as §1

Escherichia coli = conditions: 18 hours at 35° C.

## CCCCCNC(=O)OC1C(CO)OC(OC2C(CO)OC(Oc3ccc(CC4NC(=O)C(C(C)c5ccccc5)NC(=O)CNC(=O)C(CO)NC(=O)C(C(O)C5CNC(=N)N5C5OC(CO)C(O)C(O)C5O)NC(=O)C(C(O)C5CNC(=N)N5)NC4=O)cc3)C(O)C2O)C(O)C1O (stereo not drawn) [Example 251]
Enterococcus sp.
  MIC Enterococcus avium (GC 4558): >64 µg/mL
  MIC Enterococcus faecalis (ATCC 29212): >64 µg/mL
  MIC Enterococcus faecalis (GC 2242): >64 µg/mL
  MIC Enterococcus faecalis (GC 4552): >64 µg/mL
  MIC Enterococcus faecalis (GC 4553): >64 µg/mL
  MIC Enterococcus faecalis (GC 4554): >64 µg/mL
  MIC Enterococcus faecium (GC 2243): >64 µg/mL
  MIC Enterococcus faecium (GC 4556): >64 µg/mL
  MIC Enterococcus faecium (GC 4557): 64 µg/mL (≈ 45.4 µM)
Enterococcus sp.; strain ATCC 29212
  MIC Enterococcus faecalis (ATCC 29212): >64 µg/mL
Enterococcus sp.; strain GC 2242
  MIC Enterococcus faecalis (GC 2242): >64 µg/mL
Enterococcus sp.; strain GC 2243
  MIC Enterococcus faecium (GC 2243): >64 µg/mL
Enterococcus sp.; strain GC 4552
  MIC Enterococcus faecalis (GC 4552): >64 µg/mL
Enterococcus sp.; strain GC 4553
  MIC Enterococcus faecalis (GC 4553): >64 µg/mL
Enterococcus sp.; strain GC 4554
  MIC Enterococcus faecalis (GC 4554): >64 µg/mL
Enterococcus sp.; strain GC 4556
  MIC Enterococcus faecium (GC 4556): >64 µg/mL
Enterococcus sp.; strain GC 4557
  MIC Enterococcus faecium (GC 4557): 64 µg/mL (≈ 45.4 µM)
Enterococcus sp.; strain GC 4558
  MIC Enterococcus avium (GC 4558): >64 µg/mL
Staphylococcus sp.
  MIC Coagulase Negative Staphylococcus (GC 4547): >64 µg/mL
  MIC Coagulase Negative Staphylococcus (GC 4548): >64 µg/mL
  MIC Coagulase Negative Staphylococcus (GC 4549): >64 µg/mL
  MIC Coagulase Negative Staphylococcus (GC 4551): >64 µg/mL
  MIC Coagulase Negative Staphylococcus (ID-3941): 64 µg/mL (≈ 45.4 µM)
  MIC Staphylococcus aureus (ATCC 29213): >64 µg/mL
  MIC Staphylococcus aureus (GC 1131): >64 µg/mL
  MIC Staphylococcus aureus (GC 4541): >64 µg/mL
  MIC Staphylococcus aureus (GC 4542): >64 µg/mL
  MIC Staphylococcus aureus (GC 4544): >64 µg/mL
  MIC Staphylococcus aureus (GC 4545): >64 µg/mL
  MIC Staphylococcus aureus-SMITH (GC 4543): >64 µg/mL
  MIC Staphylococcus haemolyticus (GC 4546): >64 µg/mL
Staphylococcus sp.; strain ATCC 29213
  MIC Staphylococcus aureus (ATCC 29213): >64 µg/mL
Staphylococcus sp.; strain GC 1131
  MIC Staphylococcus aureus (GC 1131): >64 µg/mL
Staphylococcus sp.; strain GC 4541
  MIC Staphylococcus aureus (GC 4541): >64 µg/mL
Staphylococcus sp.; strain GC 4542
  MIC Staphylococcus aureus (GC 4542): >64 µg/mL
Staphylococcus sp.; strain GC 4543
  MIC Staphylococcus aureus-SMITH (GC 4543): >64 µg/mL
Staphylococcus sp.; strain GC 4544
  MIC Staphylococcus aureus (GC 4544): >64 µg/mL
Staphylococcus sp.; strain GC 4545
  MIC Staphylococcus aureus (GC 4545): >64 µg/mL
Staphylococcus sp.; strain GC 4546
  MIC Staphylococcus haemolyticus (GC 4546): >64 µg/mL
Staphylococcus sp.; strain GC 4547
  MIC Coagulase Negative Staphylococcus (GC 4547): >64 µg/mL
Staphylococcus sp.; strain GC 4548
  MIC Coagulase Negative Staphylococcus (GC 4548): >64 µg/mL
Staphylococcus sp.; strain GC 4549
  MIC Coagulase Negative Staphylococcus (GC 4549): >64 µg/mL
Staphylococcus sp.; strain GC 4551
  MIC Coagulase Negative Staphylococcus (GC 4551): >64 µg/mL
Staphylococcus sp.; strain ID-3941
  MIC Coagulase Negative Staphylococcus (ID-3941): 64 µg/mL (≈ 45.4 µM)
Streptococcus sp.
  MIC Streptococcus agalactiae (GC 4564): >64 µg/mL
  MIC Streptococcus pneumoniae (GC 4565): 64 µg/mL (≈ 45.4 µM)
  MIC Streptococcus pyogenes (ID-3187): 64 µg/mL (≈ 45.4 µM)
Streptococcus sp.; strain GC 4564
  MIC Streptococcus agalactiae (GC 4564): >64 µg/mL
Streptococcus sp.; strain GC 4565
  MIC Streptococcus pneumoniae (GC 4565): 64 µg/mL (≈ 45.4 µM)
Streptococcus sp.; strain ID-3187
  MIC Streptococcus pyogenes (ID-3187): 64 µg/mL (≈ 45.4 µM)
Escherichia coli
  MIC Escherichia coli (ATCC 25922): >64 µg/mL
  MIC Escherichia coli (GC 4559): >64 µg/mL
  MIC Escherichia coli (GC 4560): 4 µg/mL (≈ 2.84 µM)

## CC(c1ccccc1)C1NC(=O)CNC(=O)C(CO)NC(=O)C(CC2CNC(=N)N2C2OC(CO)C(O)C(O)C2O)NC(=O)C(CC2CNC(=N)N2)NC(=O)C(Cc2ccc(OC3OC(CO)C(OC4OC(CO)C(O)C(OCc5ccc(OCc6ccccc6)cc5)C4O)C(O)C3O)cc2)NC1=O (stereo not drawn) [Example 246b]
Enterococcus sp.
  MIC Enterococcus avium (GC 4558): 64 µg/mL (≈ 43.8 µM)
  MIC Enterococcus faecalis (ATCC 29212): 128 µg/mL (≈ 87.7 µM)
  MIC Enterococcus faecalis (GC 2242): 128 µg/mL (≈ 87.7 µM)
  MIC Enterococcus faecalis (GC 2691): 128 µg/mL (≈ 87.7 µM)
  MIC Enterococcus faecalis (GC 3059): 128 µg/mL (≈ 87.7 µM)
  MIC Enterococcus faecalis (GC 4552): 128 µg/mL (≈ 87.7 µM)
  MIC Enterococcus faecalis (GC 4553): 128 µg/mL (≈ 87.7 µM)
  MIC Enterococcus faecalis (GC 4554): >128 µg/mL
  MIC Enterococcus faecalis (GC 6189): 128 µg/mL (≈ 87.7 µM)
  MIC Enterococcus faecium (GC 2243): 128 µg/mL (≈ 87.7 µM)
  MIC Enterococcus faecium (GC 4556): 128 µg/mL (≈ 87.7 µM)
  MIC Enterococcus faecium (GC 4557): 32 µg/mL (≈ 21.9 µM)
Enterococcus sp.; strain ATCC 29212
  MIC Enterococcus faecalis (ATCC 29212): 128 µg/mL (≈ 87.7 µM)
Enterococcus sp.; strain GC 2242
  MIC Enterococcus faecalis (GC 2242): 128 µg/mL (≈ 87.7 µM)
Enterococcus sp.; strain GC 2243
  MIC Enterococcus faecium (GC 2243): 128 µg/mL (≈ 87.7 µM)
Enterococcus sp.; strain GC 2691
  MIC Enterococcus faecalis (GC 2691): 128 µg/mL (≈ 87.7 µM)
Enterococcus sp.; strain GC 3059
  MIC Enterococcus faecalis (GC 3059): 128 µg/mL (≈ 87.7 µM)
Enterococcus sp.; strain GC 4552
  MIC Enterococcus faecalis (GC 4552): 128 µg/mL (≈ 87.7 µM)
Enterococcus sp.; strain GC 4553
  MIC Enterococcus faecalis (GC 4553): 128 µg/mL (≈ 87.7 µM)
Enterococcus sp.; strain GC 4554
  MIC Enterococcus faecalis (GC 4554): >128 µg/mL
Enterococcus sp.; strain GC 4556
  MIC Enterococcus faecium (GC 4556): 128 µg/mL (≈ 87.7 µM)
Enterococcus sp.; strain GC 4557
  MIC Enterococcus faecium (GC 4557): 32 µg/mL (≈ 21.9 µM)
Enterococcus sp.; strain GC 4558
  MIC Enterococcus avium (GC 4558): 64 µg/mL (≈ 43.8 µM)
Enterococcus sp.; strain GC 6189
  MIC Enterococcus faecalis (GC 6189): 128 µg/mL (≈ 87.7 µM)
Staphylococcus sp.
  MIC Coagulase Negative Staphylococcus (GC 4547): 64 µg/mL (≈ 43.8 µM)
  MIC Coagulase Negative Staphylococcus (GC 4548): 64 µg/mL (≈ 43.8 µM)
  MIC Coagulase Negative Staphylococcus (GC 4549): 32 µg/mL (≈ 21.9 µM)
  MIC Coagulase Negative Staphylococcus (GC 4551): 64 µg/mL (≈ 43.8 µM)
  MIC Coagulase Negative Staphylococcus (GC 6257): 64 µg/mL (≈ 43.8 µM)
  MIC Staphylococcus aureus (ATCC 29213): 64 µg/mL (≈ 43.8 µM)
  MIC Staphylococcus aureus (GC 1131): 128 µg/mL (≈ 87.7 µM)
  MIC Staphylococcus aureus (GC 3051): 64 µg/mL (≈ 43.8 µM)
  MIC Staphylococcus aureus (GC 3053): 128 µg/mL (≈ 87.7 µM)
  MIC Staphylococcus aureus (GC 4541): 64 µg/mL (≈ 43.8 µM)
  MIC Staphylococcus aureus (GC 4542): 64 µg/mL (≈ 43.8 µM)
  MIC Staphylococcus aureus (GC 4544): 64 µg/mL (≈ 43.8 µM)
  MIC Staphylococcus aureus (GC 4545): 64 µg/mL (≈ 43.8 µM)
  MIC Staphylococcus aureus-SMITH (GC 4543): 64 µg/mL (≈ 43.8 µM)
  MIC Staphylococcus haemolyticus (GC 4546): 128 µg/mL (≈ 87.7 µM)
Staphylococcus sp.; strain ATCC 29213
  MIC Staphylococcus aureus (ATCC 29213): 64 µg/mL (≈ 43.8 µM)
Staphylococcus sp.; strain GC 1131
  MIC Staphylococcus aureus (GC 1131): 128 µg/mL (≈ 87.7 µM)
Staphylococcus sp.; strain GC 3051
  MIC Staphylococcus aureus (GC 3051): 64 µg/mL (≈ 43.8 µM)
Staphylococcus sp.; strain GC 3053
  MIC Staphylococcus aureus (GC 3053): 128 µg/mL (≈ 87.7 µM)
Staphylococcus sp.; strain GC 4541
  MIC Staphylococcus aureus (GC 4541): 64 µg/mL (≈ 43.8 µM)
Staphylococcus sp.; strain GC 4542
  MIC Staphylococcus aureus (GC 4542): 64 µg/mL (≈ 43.8 µM)
Staphylococcus sp.; strain GC 4543
  MIC Staphylococcus aureus-SMITH (GC 4543): 64 µg/mL (≈ 43.8 µM)
Staphylococcus sp.; strain GC 4544
  MIC Staphylococcus aureus (GC 4544): 64 µg/mL (≈ 43.8 µM)
Staphylococcus sp.; strain GC 4545
  MIC Staphylococcus aureus (GC 4545): 64 µg/mL (≈ 43.8 µM)
Staphylococcus sp.; strain GC 4546
  MIC Staphylococcus haemolyticus (GC 4546): 128 µg/mL (≈ 87.7 µM)
Staphylococcus sp.; strain GC 4547
  MIC Coagulase Negative Staphylococcus (GC 4547): 64 µg/mL (≈ 43.8 µM)
Staphylococcus sp.; strain GC 4548
  MIC Coagulase Negative Staphylococcus (GC 4548): 64 µg/mL (≈ 43.8 µM)
Staphylococcus sp.; strain GC 4549
  MIC Coagulase Negative Staphylococcus (GC 4549): 32 µg/mL (≈ 21.9 µM)
Staphylococcus sp.; strain GC 4551
  MIC Coagulase Negative Staphylococcus (GC 4551): 64 µg/mL (≈ 43.8 µM)
Staphylococcus sp.; strain GC 6257
  MIC Coagulase Negative Staphylococcus (GC 6257): 64 µg/mL (≈ 43.8 µM)
Streptococcus sp.
  MIC Streptococcus agalactiae (GC 4564): 64 µg/mL (≈ 43.8 µM)
  MIC Streptococcus pneumoniae (ATCC 6301): 32 µg/mL (≈ 21.9 µM)
  MIC Streptococcus pneumoniae (GC 1894): 32 µg/mL (≈ 21.9 µM)
  MIC Streptococcus pneumoniae (GC 4565): 64 µg/mL (≈ 43.8 µM)
  MIC Streptococcus pyogenes (GC 4563): 64 µg/mL (≈ 43.8 µM)
Streptococcus sp.; strain ATCC 6301
  MIC Streptococcus pneumoniae (ATCC 6301): 32 µg/mL (≈ 21.9 µM)
Streptococcus sp.; strain GC 1894
  MIC Streptococcus pneumoniae (GC 1894): 32 µg/mL (≈ 21.9 µM)
Streptococcus sp.; strain GC 4563
  MIC Streptococcus pyogenes (GC 4563): 64 µg/mL (≈ 43.8 µM)
Streptococcus sp.; strain GC 4564
  MIC Streptococcus agalactiae (GC 4564): 64 µg/mL (≈ 43.8 µM)
Streptococcus sp.; strain GC 4565
  MIC Streptococcus pneumoniae (GC 4565): 64 µg/mL (≈ 43.8 µM)
Escherichia coli
  MIC Escherichia coli (ATCC 25922): >128 µg/mL
  MIC Escherichia coli (GC 4559): >128 µg/mL
  MIC Escherichia coli (GC 4560): 32 µg/mL (≈ 21.9 µM)

Source: patent US6914045B2, “Glycopeptide antibiotics” (Wyeth Holdings Corporation, priority 2001, dated 2005)
